Laboratory results as given in US12048685B2, “Transient receptor potential cation channel subfamily m member 8 (TRPM8) antagonists and methods of use” (Ora, Inc., priority 2015, dated 2024).
Where a name gives a salt, the structure may show the parent alone.

How the values were obtained:
Balb/C mice = conditions: 15 minutes and 24 hours post TRPM8 antagonist dose (0.01%, 0.05%, 0.10%), immediately post menthol dose, water control, FIG. 6
Description: Behavioral endpoints, e.g. blinking for balb/cs nice, was tested. […] Treatment of the mice with water was used as a control. TRPM8 antagonist was used at concentrations of 0.01%, 0.05% and 0.10%.

[1] = Ocular discomfort on exposure to Turbo-CAE after CAE (severe dry eye symptoms); assay type: in vivo, human; conditions: 15 minutes of Turbo-CAE after 25-minute CAE, p<0.01, FIGS. 5A and B
Description: (§1) A series of experiments were carried out assessing the clinical signs and symptoms of dry eye disease or severe dry eye disease using a commercially available TRPM8 antagonist, N-(2-Aminoethyl)-N-(4-(benzyloxy)-3-methoxybenzyl)thiophene-2-carboxamide hydrochloride, N-(2-Aminoethyl)-N-[[3-methoxy-4-(phenylmethoxy)phenyl]methyl]-2-thiophenecarboxamide hydrochloride (Sigma Aldrich M8-B hydrochloride (SML0893)), shown below as Compound I, at a concentration of 0.1% (vs placebo), administered unilaterally.
(§2) Post-dose, exposure to Menthol (ROHTO Hydra), as well as to an adverse environment (CAESM), was used to elicit symptomology in 3 patients with healthy eyes. Validated symptom scales were used to collect levels of discomfort secondary to the exposures (Ora Calibra™ Ocular Discomfort Questionnaire, Drop Comfort Questionnaire). A summary of the findings is presented below.
Next, the effect of Turbo-CAE exposure after dosing with Compound I or placebo was examined. After 25-minute Controlled Adverse Environment (CAE) exposure, subjects were exposed to 15 minutes of Turbo-CAE, in order to elicit symptomology similar in nature to severe dry eye symptoms. An Ocular Discomfort Questionnaire (0-4 scale) was asked every 5 minutes.

TRPM-8 channels = target: T1, TRPM-8 channels (Homo sapiens, UniProt Q7Z2W7); assay: Post-menthol treatment symptoms (Drop Discomfort) after dosing, menthol-containing eyedrop (ROHTO Hydra); assay type: in vivo
T1 construct: from tissue; host or cells: eye (ocular surface) of living human subjects
Text: Post-dose, exposure to Menthol (ROHTO Hydra), as well as to an adverse environment (CAESM), was used to elicit symptomology in 3 patients with healthy eyes. Validated symptom scales were used to collect levels of discomfort secondary to the exposures (Ora Calibra™ Ocular Discomfort Questionnaire, Drop Comfort Questionnaire). A summary of the findings is presented below. The effect of topical menthol application after dosing with Compound I or placebo was examined. After dosing with Compound I or placebo, 1 drop menthol-containing OTC eyedrop were administered bilaterally (ROHTO Hydra). Menthol is known to act upon TRPM-8 channels, effectively causing neural activity similar in nature to exposure to cold temperature. As such, menthol was used to induce a “cooling” symptom. […] Baseline (pre-menthol) symptoms were “0” for each eye, for all 3 subjects (data not shown).

[2] = Corneal sensitivity measured by Cochet Bonnet after topical dosing; assay type: in vivo, human
Description: as §1, §2
In a first set of experiments, the effect of Compound I on corneal sensitivity was examined. Subjects (shown by initials E-A, KJL, M-C) were dosed with 20 ul of Compound I (0.1%) or a placebo (BSS).

[3] = Ocular discomfort on exposure to a Controlled Adverse Environment (CAE); assay type: in vivo, human; conditions: CAE for 25 minutes, asked every 5 minutes, p<0.01, FIGS. 4A and B
Description: as §1, §2
The effect of CAE exposure after dosing with Compound I or placebo was examined. After dosing with Compound I or placebo, subjects were exposed to a Controlled Adverse Environment (CAE) for 25 minutes, in order to elicit symptomology similar in nature to dry eye symptoms. An Ocular Discomfort Questionnaire (0-4 scale) was asked every 5 minutes.

T1 sequence (Q7Z2W7 whole entry): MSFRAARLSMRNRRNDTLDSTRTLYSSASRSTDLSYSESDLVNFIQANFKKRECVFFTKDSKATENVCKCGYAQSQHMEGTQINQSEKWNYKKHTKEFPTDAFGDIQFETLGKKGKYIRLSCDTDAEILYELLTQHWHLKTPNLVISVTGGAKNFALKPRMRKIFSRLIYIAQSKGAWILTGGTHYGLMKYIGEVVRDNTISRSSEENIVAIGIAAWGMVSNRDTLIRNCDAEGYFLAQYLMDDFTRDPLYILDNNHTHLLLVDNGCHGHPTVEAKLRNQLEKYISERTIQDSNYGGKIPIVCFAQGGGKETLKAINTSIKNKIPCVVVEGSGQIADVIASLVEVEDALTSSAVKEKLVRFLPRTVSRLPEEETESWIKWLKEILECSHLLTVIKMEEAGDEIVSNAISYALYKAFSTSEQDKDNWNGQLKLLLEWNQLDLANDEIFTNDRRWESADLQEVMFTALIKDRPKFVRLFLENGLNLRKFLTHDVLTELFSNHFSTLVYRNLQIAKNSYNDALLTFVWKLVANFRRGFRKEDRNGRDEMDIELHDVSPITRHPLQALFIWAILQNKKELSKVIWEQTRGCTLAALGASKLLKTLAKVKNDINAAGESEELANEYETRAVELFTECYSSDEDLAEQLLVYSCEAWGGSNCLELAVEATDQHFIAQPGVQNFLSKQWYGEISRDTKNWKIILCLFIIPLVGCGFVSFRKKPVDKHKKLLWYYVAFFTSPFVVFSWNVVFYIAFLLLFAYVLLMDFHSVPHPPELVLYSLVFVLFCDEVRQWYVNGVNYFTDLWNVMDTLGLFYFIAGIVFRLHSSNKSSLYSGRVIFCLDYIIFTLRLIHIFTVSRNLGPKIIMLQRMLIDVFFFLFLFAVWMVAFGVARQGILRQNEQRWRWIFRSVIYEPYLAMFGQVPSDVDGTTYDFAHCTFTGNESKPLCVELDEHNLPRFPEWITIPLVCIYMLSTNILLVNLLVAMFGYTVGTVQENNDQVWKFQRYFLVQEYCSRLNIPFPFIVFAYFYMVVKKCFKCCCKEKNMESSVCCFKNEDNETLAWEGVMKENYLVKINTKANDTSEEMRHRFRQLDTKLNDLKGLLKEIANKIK

| Molecule | blink rate per minute (Balb/C mice) | symptom scores (Ocular Discomfort Questionnaire, 0-4 scale) vs placebo [1] | action of menthol (cooling symptom) (TRPM-8 channels; 0.1% dosed before 1 drop menthol-containing OTC eyedrop bilaterally, FIGS. 3A and B) | subject-reported symptom scores (Drop Discomfort, 0-10 scale) vs placebo (TRPM-8 channels; post-menthol, treated eye vs placebo eye, p<0.01, 3 subjects) | effect on corneal sensitivity ([2]; 20 ul of 0.1%, unilateral, vs placebo (BSS), 3 subjects with healthy eyes, Cochet Bonnet, FIG. 2) | decrease in sensitivity ([2]; Subject, 70 mm to 65 mm, 20 ul of 0.1%) [mm] | changes in sensitivity ([2]; Subjects E-A and M-C, 20 ul of 0.1%) | difference in corneal sensitivity pre- to post-dose ([2]; p=0.42, 3 subjects) | symptom scores (Ocular Discomfort Questionnaire, 0-4 scale) vs placebo [3] |
| --- | --- | --- | --- | --- | --- | --- | --- | --- | --- |
| CC1CCC(C(C)C)C(O)C1 (stereo not shown) [menthol] | increase in blink rate |  |  |  |  |  |  |  |  |
| COc1cc(CN(CCN)C(=O)c2cccs2)ccc1OCc1ccccc1 [Compound I, N-(2-Aminoethyl)-N-(4-(benzyloxy)-3-methoxybenzyl)thiophene-2-carboxamide hydrochloride] |  | significantly lower symptom scores than placebo | effectively block the action of menthol | significantly lower symptom scores than placebo | minimal effect | 5 | no detectable changes | No significant difference | significantly lower symptom scores than placebo |
| N-(2-Aminoethyl)-N-(4-(benzyloxy)-3-methoxybenzyl)thiophene-2-carboxamide hydrochloride [Compound I] | reproducibly blocked |  |  |  |  |  |  |  |  |
